# Experimental data from PMC7045321 (ACS Omega, 2020).
# Key:
# S. aureus [1] = test: Time-kill kinetics in MHB; format: cell-based, Staphylococcus aureus; details: 4 × MIC in MHB
# S. aureus [2] = test: Time-kill kinetics in MHB with 10% serum; format: cell-based, Staphylococcus aureus; details: 4 × MIC in MHB with 10% fetal bovine serum (FBS), 37 °C
smiles,measurement,setting,value
CN[C@H](CC(C)C)C(=O)N[C@H]1C(=O)N[C@@H](CC(N)=O)C(=O)N[C@H]2C(=O)N[C@H]3C(=O)N[C@H](C(=O)N[C@H](C(=O)O)c4cc(O)cc(O)c4-c4cc3ccc4O)[C@H](O)c3ccc(c(Cl)c3)Oc3cc2cc(c3O[C@@H]2O[C@H](CO)[C@@H](O)[C@H](O)[C@H]2O[C@H]2C[C@](C)(N)[C@H](O)[C@H](C)O2)Oc2ccc(cc2Cl)[C@H]1O [vancomycin],log reduction after 24 h,S. aureus [1]; 37 °C,3 log
same,time to complete eradication of viable S. aureus cells,"S. aureus [1]; ~10^5 CFU mL^–1, 37 °C, followed for 24 h",not complete eradication
same,log reduction in cell viability after 3 h exposure,S. aureus [2],1 log
